The text below walks through data of publication PMC4164784, “4E-BPs require non-canonical 4E-binding motifs and a lateral surface of eIF4E to repress translation” (Nature Communications, 2014).

In experiment [1] the test system is eIF4E (II-AA mutant)–eIF4G complex. The experiment is described as follows: Competition assay, displacement of GST-eIF4G from preassembled eIF4E (II-AA)–eIF4G complexes. In kind it is biochemical, Drosophila melanogaster. The note with it: Fig. 4; 2 μM complex, GB1-fused competitor, 20 min at 4 °C, Strep-Tactin pull down; n=2. The method, then:
To obtain the preassembled eIF4E–eIF4G complexes used in Figs 4 and 5d–g, full-length eIF4E (WT or the II-AA mutant) containing an N-terminal SNH-tag was coexpressed with an N-terminal GST-tagged eIF4G (residues 578–650). The cells were lysed by sonication in lysis buffer containing 50 mM HEPES (pH 7.2), 300 mM NaCl and 2 mM DTT. The complexes were purified from the cleared lysates using Protino Glutathione Agarose 4B beads (Machery-Nagel). The complex was further purified using a heparin column (HiTrap Heparin HP 5 ml, GE Healthcare) and a final size exclusion chromatography (Superdex 200 16/60, GE Healtcare) in 20 mM HEPES (pH 7.2), 200 mM NaCl and 2 mM DTT.
For the titration experiments shown in Fig. 4, 2 μM of purified complexes containing SHN-eIF4E (WT or II-AA mutant) bound to GST-eIF4G (residues 578–650) were incubated with increasing amounts (2–20 μM) of purified competitor proteins for 20 min at 4 °C. The eIF4E-bound proteins were recovered via Strep-Tactin Sepharose pull down and eluted with lysis buffer containing 2.5 mM desthiobiotin. The proteins were analyzed by 15% SDS–PAGE followed by staining with Coomassie blue staining. […]
presence of MBP (negative control), increasing amounts of 4E-BP peptides or eIF4G-GB1 in […]
The amounts of GST-eIF4G bound to eIF4E in each experimental condition were determined using the Image J software after Coomassie blue staining. To rule out the possibility that changes in the amount of GST-eIF4G bound to eIF4E resulted from variations in the loading volume, all values were normalized to the levels of SHN-eIF4E present in each condition. These values were set to 100 in the presence of MBP.
Each experiment was repeated at least twice. (e,f) Quantification of the experiments shown in Fig. 5d–g. The amounts of GST-eIF4G remaining bound to eIF4E in the presence of MBP, 4E-BP peptides or eIF4G-GB1 were normalized to those of eIF4E and set to 100 in the presence of MBP. […]
micrographs of fixed S2 cells expressing HA-4E-T and GFP-Tral. The localization of HA-4E-T was determined by indirect immunofluorescence using an anti-HA antibody. […]

In another experiment the test system is endogenous eIF4E. The experiment is described as follows: Coimmunoprecipitation / m7GTP pull-down with endogenous eIF4E in S2 cell lysates. The note with it: western blot. In kind it is cell-based, Drosophila melanogaster. In a few lines: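 S2 cell lysates expressing HA-tagged 4E-BPs (CUP, Thor, 4E-T), eIF4G or mutants, immunoprecipitated with anti-eIF4E or anti-HA antibodies, or pulled down with m7GTP beads for 1 h at 4 °C. Washes in NET buffer (50 mM Tris pH 7.4, 150 mM NaCl, 1 mM EDTA, 0.1% Triton X-100). Bound proteins detected by anti-HA/anti-eIF4E western blot; pre-immune serum and HA-MBP as negative controls.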
For orientation: In western blotting, separated proteins are transferred to a membrane and probed.

Experiment [2] deals with eIF4E II-AA mutant (full length). The experiment can be described thus: GST/MBP pull-down of full-length eIF4E II-AA mutant, coexpressed in E. coli. In kind it is binding, Drosophila melanogaster. The note with it: recombinant CUP (311–440), Thor (full length), 4E-T (1–58) or eIF4G (578–650), WT or mutant, SDS–PAGE. The method, then: For the pull-down assays shown in Fig. 3 and Supplementary Fig. 6a, the full-length His6- or SHN-tagged eIF4E (WT or II-AA mutant) was coexpressed with GST or MBP-tagged protein fragments, including CUP (residues 311–440), Thor (full length), 4E-T (residues 1–58) or eIF4G (residues 578–650) in E. coli BL21 (DE3) STAR cells in autoinducing medium[44] overnight at 20 °C. The cells were resuspended in lysis buffer (20 mM Tris–HCl (pH 7.5), 100 mM NaCl, 1 mM DTT) supplemented with EDTA-free protease inhibitor (Roche) and lysed by sonication. The cleared lysates were incubated for 1 h with 20 μl of Protino Glutathione Agarose 4B beads (Macherey-Nagel) or amylose resin (New England Biolabs). The beads were washed three times with lysis buffer, and the bound proteins were eluted with lysis buffer containing 25 mM L-glutathione or 25 mM maltose for 15 min. The proteins were analyzed by 10–15% SDS–PAGE followed by Coomassie blue staining.

No end group written: not given here.

With “4E-T C+NC: 4E-T residues 9–44, eIF4E-binding region short, C-terminal GB1”, the “displacement of eIF4G from eIF4E II-AA–eIF4G complex (in words)” value (“displacement of eIF4G” for short) in experiment [1] is reported as “did not efficiently displace eIF4G”.

As for “4E-T C: 4E-T residues 9–21, canonical motif”, the “interaction with endogenous eIF4E (in words)” value in the experiment with endogenous eIF4E was “drastic reduction”. In experiment [2], the “binding to eIF4E II-AA mutant (in words)” value is recorded as “reduced binding”.

With “CUP C+NC: CUP residues 325–376, eIF4E-binding region short, C-terminal GB1 (KSYTRSRLMDIRNGMFNALMHRSKESFVMPRIATCDDIELEGRLRRMNIWRT-GB1; UniProt Q9VMA3 325-376, looked up, fragment)”, the “displacement of eIF4G” value in experiment [1] is “did not efficiently displace eIF4G”.

For the substance “Thor C+NC: Thor residues 50–83, eIF4E-binding region short, C-terminal GB1 (TKLIYERAFMKNLRGSPLSQTPPSNVPSCLLRGT-GB1; UniProt Q9XZ56 50-83, looked up, fragment)”, in experiment [1], the “displacement of eIF4G” value was “did not efficiently displace eIF4G”.

Consider “Thor C: Thor residues 50–63, canonical motif”, for which, in the experiment with endogenous eIF4E, the “interaction with endogenous eIF4E (in words)” value is recorded as “disrupted the interaction with eIF4E”. Also, the “binding to eIF4E II-AA mutant (in words)” value in experiment [2] is given as “strongly impaired in their binding”.
